Results: patent US8758833B2, “Cosmetic composition for the treatment of acne comprising a peptide extract of Schisandra” (Laboratoires Expanscience, priority 2009, dated 2014)

Experiments:
[1] = test system: IL-1α released by keratinocytes; test: Assay of IL-1α released by PMA-stimulated keratinocytes (ELISA); type: cell-based
Experimental: (§1) Keratinocytes were seeded in 24-well plates in KGM2 medium. After 24 hours of incubation, the cells were pretreated with Schisandra peptides for 24 hours. Next, the cells were stimulated by adding […] PMA (phorbol 12-myristate 13-acetate, Sigma) for 24 hours.
(§2) After the treatment, the cell supernatants were collected and IL-1α and VEGF were assayed using ELISA kits (R&D Systems) according to the manufacturer's instructions.
(§3) An MTT (IL-1α) or neutral red (VEGF) test was carried out on the cell layers: OD, proportional to the quantity of living cells, is read at 570 nm (MTT) or 540 nm (red neutral).
(§4) The quantities of IL-1α and VEGF are expressed in pg/ml/OD570 and pg/ml/OD540, respectively.

[2] = test system: VEGF in keratinocytes; test: Assay of VEGF in PMA-stimulated keratinocytes (ELISA); type: cell-based; conditions: Positive control (PMA) alone; non-stimulated control 208.166
Experimental: as §1, §2, §3, §4

Compound	inhibition at 0.1 µM ([1]; Keratinocyte, pretreatment with 10^−7 M dexamethasone, keratinocytes stimulated by PMA 24 hours, read-out: inhibition of the IL-1α release induced by PMA) [%]	Average VEGF [2] [pg/mL]	release of IL-1α induced by stimulation (% vs unstimulated) ([1]; keratinocytes stimulated by PMA for 24 hours)
C[C@@H]1C[C@H]2[C@@H]3CCC4=CC(=O)C=C[C@]4(C)[C@@]3(F)[C@@H](O)C[C@]2(C)[C@@]1(O)C(=O)CO [dexamethasone]	100	–	–
CCCCCCCCCCCCCC(=O)O[C@@H]1[C@@H](C)[C@@]2(O)[C@@H](C=C(CO)C[C@]3(O)C(=O)C(C)=C[C@@H]23)[C@@H]2C(C)(C)[C@]12OC(C)=O [PMA, phorbol 12-myristate 13-acetate]	–	767.941	+123%
